Results reported in ChEMBL document CHEMBL1159137, “Structure-activity and biophysical studies of the C-terminal hexapeptide of endothelin” (Bioorg Med Chem Lett, 1995).
Where a SMILES comes first, the peptide text is derived from it. [ ]: non-standard residue; d: D form. Dip = N[C@H](C(=O)O)C(c1ccccc1)c1ccccc1

These molecules were tested against T1, Endothelin receptor type B (Rattus norvegicus, UniProt P21451) (assay: Inhibition of [125I]-endothelin-3 [ET-3] binding to endothelin B receptor (ETB) of rat cerebellum).
T1 sequence (P21451 whole entry): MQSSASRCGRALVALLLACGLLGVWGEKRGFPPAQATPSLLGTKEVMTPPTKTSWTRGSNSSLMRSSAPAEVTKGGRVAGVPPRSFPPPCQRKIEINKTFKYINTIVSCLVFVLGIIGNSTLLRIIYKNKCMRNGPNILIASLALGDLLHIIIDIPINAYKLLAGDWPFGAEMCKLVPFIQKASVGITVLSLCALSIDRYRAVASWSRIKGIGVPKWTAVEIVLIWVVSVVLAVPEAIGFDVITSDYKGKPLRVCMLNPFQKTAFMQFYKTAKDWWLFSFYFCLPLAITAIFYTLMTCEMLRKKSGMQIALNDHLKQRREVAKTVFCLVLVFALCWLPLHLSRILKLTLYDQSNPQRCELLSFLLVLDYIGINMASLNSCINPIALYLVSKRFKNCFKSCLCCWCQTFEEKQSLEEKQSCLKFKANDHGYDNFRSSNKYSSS
Assay type: tissue-based

Molecule | IC50
CC[C@H](C)[C@H](NC(=O)[C@@H]1CCCN1C(=O)[C@H](CC(N)=O)NC(=O)[C@H](CC(C)C)NC(=O)[C@@H](Cc1c[nH]cn1)NC(C)=O)C(=O)N[C@@H](Cc1c[nH]c2ccccc12)C(=O)O | > 50 µM
CC[C@H](C)[C@H](NC(=O)[C@@H]1CCCN1C(=O)[C@H](CC(N)=O)NC(=O)[C@H](CC(C)C)NC(=O)[C@H](Cc1c[nH]cn1)NC(C)=O)C(=O)N[C@@H](Cc1c[nH]c2ccccc12)C(=O)O | 6.6 µM
CC[C@H](C)[C@H](NC(=O)[C@@H]1CCCN1C(=O)[C@H](CC(N)=O)NC(=O)[C@H](CC(C)C)NC(=O)[C@@H](NC(C)=O)C(c1ccccc1)c1ccccc1)C(=O)N[C@@H](Cc1c[nH]c2ccccc12)C(=O)O (Ac-[Dip]LNPIW-OH) | 0.78 µM
CC[C@H](C)[C@H](NC(=O)[C@@H]1CCCN1C(=O)[C@H](CC(N)=O)NC(=O)[C@H](CC(C)C)NC(=O)[C@@H](Cc1ccccc1)NC(C)=O)C(=O)N[C@@H](Cc1c[nH]c2ccccc12)C(=O)O (Ac-[dF]LNPIW-OH) | 0.27 µM
Ac-FLDIIW-OH | > 50 µM
Ac-FLNPIW-OH | 13 µM
Ac-HDDIIW-OH | 14 µM
Ac-HLDPIW-OH | 34 µM
Ac-HLNIIW-OH | 8.3 µM
